# From ChEMBL document CHEMBL1201862, “PubChem BioAssay data set” (2004)
# The source made the active and inactive calls. Rule as the data show it, for most assays here: actives have a measured EC50 and inactives only a lower limit.
# Columns and labels:
# [1] = fluconazole-exposed Candida albicans growth modulators – fluorescence, retest, confirmation (AID 2467); assay type: functional, cell-based
# [2] = NIH-3T3 fibroblast cytotoxicity, dose response, cytotoxicity control, cell-based, fluorescence, Alamar Blue, secondary assay (AID 2327); assay type: functional;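 also: NIH-3T3 mouse fibroblasts cultured with fluconazole at 8 µg/mL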
# [3] = target: T1, Corticotropin-releasing factor receptor 2/Corticotropin-releasing factor-binding protein (Homo sapiens, UniProt P24387+Q13324); assay: activators of CRF receptor 2 with binding protein – uHTS hits, confirmation (AID 602473); assay type: functional; conditions: read-out: EC50_Mean
# T1 sequence (Q13324 whole entry): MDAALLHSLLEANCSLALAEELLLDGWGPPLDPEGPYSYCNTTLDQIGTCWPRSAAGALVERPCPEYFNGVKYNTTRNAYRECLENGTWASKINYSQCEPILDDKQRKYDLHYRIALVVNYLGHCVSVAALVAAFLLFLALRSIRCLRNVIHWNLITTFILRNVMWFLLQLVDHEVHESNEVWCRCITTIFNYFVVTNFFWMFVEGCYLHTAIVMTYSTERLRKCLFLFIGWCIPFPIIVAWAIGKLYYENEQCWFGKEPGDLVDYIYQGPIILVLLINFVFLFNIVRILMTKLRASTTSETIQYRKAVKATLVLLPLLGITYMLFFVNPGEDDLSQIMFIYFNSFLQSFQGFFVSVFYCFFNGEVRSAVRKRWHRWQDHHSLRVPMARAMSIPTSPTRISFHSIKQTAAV
# T1 sequence (P24387 whole entry): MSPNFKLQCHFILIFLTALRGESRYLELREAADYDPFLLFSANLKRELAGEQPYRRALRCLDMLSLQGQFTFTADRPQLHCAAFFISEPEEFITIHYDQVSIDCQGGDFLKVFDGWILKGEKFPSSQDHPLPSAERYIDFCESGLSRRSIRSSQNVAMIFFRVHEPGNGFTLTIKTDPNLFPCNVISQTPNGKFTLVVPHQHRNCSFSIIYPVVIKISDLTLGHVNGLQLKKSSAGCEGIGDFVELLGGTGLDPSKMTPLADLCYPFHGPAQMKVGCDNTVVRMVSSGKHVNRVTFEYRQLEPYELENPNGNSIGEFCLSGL
# [4] = microbe, parasite or virus in culture; assay type: functional; conditions: Mycobacterium tuberculosis
# [5] = NIH3T3 cell viability loss – ATP luminescence, mouse fibroblasts, counter-screen, dose response (AID 2010); assay type: functional, cell-based;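 also: cells exposed to compound for about 90 hours before reading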
# [6] = Luminescence Cell-Based Dose Retest to Confirm Inhibitors of Cancer Stem Cells. [Related pubchem assays (depositor defined):AID2717, AID2721]; assay type: functional; conditions: Homo sapiens
# [7] = luciferase reporter signal suppression in cells – H4 neuroglioma cells, luminescence, dose response (AID 1990); assay type: functional, cell-based
# [8] = Trypanosoma cruzi growth suppression in host cells – NIH3T3 host cells, beta-gal luminescence, confirmation (AID 2044); assay type: functional, cell-based;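 also: intracellular parasites grown in NIH/3T3 mouse fibroblasts as host cells; luminescent beta-galactosidase reporter signal from transgenic T. cruzi replicating inside host cells; inhibitors lower the luminescence signal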
# [9] = Luminescence Cell-Based Dose Response HTS to Identify Inhibitors of 5'UTR Stem-Loop Driven Prion Protein mRNA Translation in H4 Neuroglioblastoma Cells. [Related pubchem assays: 1827 (Project Summary), 1813 (Primary HTS)]; assay type: functional
# [10] = alpha-synuclein stem-loop luciferase translation blockers – H4 neuroglioma cells, luminescence, confirmation (AID 1988); assay type: functional, cell-based
# [11] = viability of uninfected HEp-2 cells – cell-based, HTS, cytotoxicity control for RSV inhibitor project, dose response (AID 2410); assay type: functional; conditions: human respiratory syncytial virus
# [12] = target: T2, Replicative DNA helicase DnaB (Mycobacterium tuberculosis, UniProt P9WMR3); assay: DnaB intein splicing inhibitors, dose response, biochemical, cell-free fluorescence (AID 449749); assay type: functional
# T2 sequence (P9WMR3 whole entry): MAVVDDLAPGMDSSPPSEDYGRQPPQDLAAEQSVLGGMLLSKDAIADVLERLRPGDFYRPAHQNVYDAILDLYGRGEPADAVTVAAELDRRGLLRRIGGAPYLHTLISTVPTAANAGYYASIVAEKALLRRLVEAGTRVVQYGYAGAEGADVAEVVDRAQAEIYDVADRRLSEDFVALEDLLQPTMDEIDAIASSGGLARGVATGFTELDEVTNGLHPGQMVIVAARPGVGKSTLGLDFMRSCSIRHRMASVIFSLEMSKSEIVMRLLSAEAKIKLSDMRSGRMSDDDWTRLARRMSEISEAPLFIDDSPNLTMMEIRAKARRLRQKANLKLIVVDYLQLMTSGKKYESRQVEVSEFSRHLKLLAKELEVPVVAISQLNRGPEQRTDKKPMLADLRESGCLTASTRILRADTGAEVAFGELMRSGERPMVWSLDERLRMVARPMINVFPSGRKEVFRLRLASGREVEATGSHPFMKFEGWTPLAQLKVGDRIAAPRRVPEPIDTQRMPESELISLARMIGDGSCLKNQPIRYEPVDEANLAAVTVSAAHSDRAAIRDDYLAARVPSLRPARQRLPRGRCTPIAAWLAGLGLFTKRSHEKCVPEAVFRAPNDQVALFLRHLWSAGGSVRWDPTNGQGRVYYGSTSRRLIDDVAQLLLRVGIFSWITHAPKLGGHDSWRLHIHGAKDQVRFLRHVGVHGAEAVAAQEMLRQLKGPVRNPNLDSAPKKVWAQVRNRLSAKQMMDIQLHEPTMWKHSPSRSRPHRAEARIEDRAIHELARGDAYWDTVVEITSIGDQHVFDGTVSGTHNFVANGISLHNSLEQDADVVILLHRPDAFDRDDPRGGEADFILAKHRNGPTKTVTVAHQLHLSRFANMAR
# Protein RecA = target: T3, Protein RecA (Mycobacterium tuberculosis, UniProt P9WHJ3); assay: Fluorescence Cell-Free Homogeneous Dose Retest to Identify Inhibitors of RecA-Intein Splicing Activity. [Related pubchem assays (depositor defined):AID2097, AID2223, AID489010, AID492950]; assay type: functional
# T3 sequence (P9WHJ3 whole entry): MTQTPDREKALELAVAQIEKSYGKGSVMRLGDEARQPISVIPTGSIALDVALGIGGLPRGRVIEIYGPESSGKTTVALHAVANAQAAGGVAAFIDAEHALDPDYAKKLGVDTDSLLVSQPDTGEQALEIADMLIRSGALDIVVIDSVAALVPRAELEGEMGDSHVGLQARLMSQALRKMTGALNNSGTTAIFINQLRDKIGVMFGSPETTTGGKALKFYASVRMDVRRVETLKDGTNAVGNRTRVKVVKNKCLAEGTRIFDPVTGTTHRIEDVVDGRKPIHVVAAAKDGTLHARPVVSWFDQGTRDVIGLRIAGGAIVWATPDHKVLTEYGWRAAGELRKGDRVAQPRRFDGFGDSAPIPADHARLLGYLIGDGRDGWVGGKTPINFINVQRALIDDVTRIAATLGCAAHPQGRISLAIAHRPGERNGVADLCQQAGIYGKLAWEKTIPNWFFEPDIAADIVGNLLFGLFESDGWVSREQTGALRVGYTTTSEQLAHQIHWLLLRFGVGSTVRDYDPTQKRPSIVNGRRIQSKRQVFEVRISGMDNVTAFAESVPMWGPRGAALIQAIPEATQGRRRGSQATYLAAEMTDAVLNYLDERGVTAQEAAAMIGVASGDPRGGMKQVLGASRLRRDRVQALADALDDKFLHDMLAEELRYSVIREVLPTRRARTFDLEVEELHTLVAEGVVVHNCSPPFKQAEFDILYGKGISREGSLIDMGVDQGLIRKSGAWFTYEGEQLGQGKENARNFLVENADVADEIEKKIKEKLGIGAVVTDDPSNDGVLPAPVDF
# [13] = target: T4, Heat shock factor protein 1 (Mus musculus, UniProt P38532); assay: enhancement of HSF1-driven luciferase signal – cell-based, NIH3T3, luminescence, dose retest, confirmation (AID 435004); assay type: functional;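 also: stress induced by proteasome inhibitor MG132 added 30 min after compound; luciferase reporter driven by HSF1 response element in NIH3T3 cells; actives raise luminescence as potentiators of the MG132 stress response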
# T4 sequence (P38532 whole entry): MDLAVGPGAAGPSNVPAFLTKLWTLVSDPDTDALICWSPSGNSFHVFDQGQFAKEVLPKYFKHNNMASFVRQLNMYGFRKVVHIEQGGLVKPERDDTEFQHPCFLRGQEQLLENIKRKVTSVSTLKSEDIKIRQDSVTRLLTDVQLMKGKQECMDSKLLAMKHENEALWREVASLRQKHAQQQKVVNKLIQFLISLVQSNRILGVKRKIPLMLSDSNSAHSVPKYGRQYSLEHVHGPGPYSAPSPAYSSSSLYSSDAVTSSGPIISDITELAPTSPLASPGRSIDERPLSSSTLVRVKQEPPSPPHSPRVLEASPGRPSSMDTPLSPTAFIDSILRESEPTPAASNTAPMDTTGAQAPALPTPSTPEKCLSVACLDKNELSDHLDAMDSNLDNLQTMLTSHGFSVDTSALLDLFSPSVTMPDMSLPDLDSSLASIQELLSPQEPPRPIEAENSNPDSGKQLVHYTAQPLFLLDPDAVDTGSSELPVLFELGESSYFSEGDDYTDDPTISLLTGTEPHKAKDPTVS
# INS1 = assay: INS-1E survival protection against cytokine death – cell-based, luminescence, retest, dose response (AID 449756); assay type: functional; conditions: Rattus norvegicus;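 also: cell death triggered by IL-1 beta plus TNF-alpha plus IFN-gamma mixture; protective hits raise ATP signal compared with cytokine alone wells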
smiles,measurement,setting,value
Fc1ccc2c(c1)C(c1ccncc1)=NNC(c1cccnc1)=N2,EC50,[1],2.26 µM (active)
same,EC50,[2],> 160 µM (inactive)
O=C1/C(=C/c2ccc(O)cc2)SC(=S)N1Cc1cccnc1,EC50,[3],12.9 µM (active)
Cc1ccc(-n2nc(C)c3c(C)c(CCC(=O)Nc4ccc(CN5CCCC5)cc4)c(C)nc32)cc1,CC50,[4],8.7 µM (active)
same,EC50,[5],> 60 µM (not active)
same,AC50,[6],5.7 µM (active)
same,EC50,[7],9.39 µM (active)
same,EC50,[8],1.76 µM (active)
same,EC50,[9],> 120 µM (not active)
same,EC50,[10],8.22 µM (active)
CCc1ccccc1N(CC)C(=O)C1CCN(c2ncnc3c2nc2n3CCCCC2)CC1,CC50,[11],17.2 µM (active)
CCOc1ccc(-n2c(SCc3cc(=O)oc4cc(C)c(C(C)C)cc34)nnc2-c2cccnc2)cc1,CC50,[11],17.5 µM (active)
CN=C(S)NNC(=O)c1ccc(N(C)C)cc1,CC50,[11],> 50 µM (active)
Cc1nc2ccccc2cc1OCc1ccccc1,EC50,[1],3.26 µM (active)
same,EC50,[2],> 160 µM (inactive)
O=S(=O)(c1ccccc1)N1CCCC(c2nc(O)c3nnn(Cc4ccccc4Br)c3n2)C1 (stereo not drawn),CC50,[11],18.2 µM (active)
O=C(c1ccco1)c1coc2c1cc(O)c1ccccc12,AC50,[12],16.2 µM (active)
same,EC50,Protein RecA,48.7 µM (active)
same,EC50,[13],65.4 µM (active)
same,AC50,INS1,27 µM (active)
c1coc(CNc2c3c(nc4ncnn24)CCC3)c1,CC50,[11],40.5 µM (active)
Cn1c(=O)c(C(=O)COC(=O)c2cc(C(F)(F)F)nc3c(C(F)(F)F)cccc23)c(N)n(CC2CC2)c1=O,CC50,[4],> 40 µM (active)
CCn1nc(C)c(C(=O)Nc2cc(Oc3cc(C)cc(C)c3)cc([N+](=O)[O-])c2)c1C,CC50,[4],22.7 µM (active)
